Results from US20220370636A1, “NICOTINAMIDE ADENINE DINUCLEOTIDE ACTIVATOR AND USE THEREOF” (University of South Florida, priority 2021, published 2022).

Experiments:
[1] = system: db/db hearts; test: Ex vivo ischemia reperfusion (Langendorff) in db/db hearts; parameters: species or system mice
Description: Ex vivo ischemia reperfusion protocol. Mice were injected with heparin (360 USP units, Sigma-Aldrich, MO, USA) and euthanized with Somnasol™ (pentobarbital, 50 mg/kg i.p. body weight). Hearts were then excised and mounted on to the Langendorff apparatus immediately and perfused with Krebs-Hanseleit buffer containing (in mM): 119 NaCl, 25 NaHCO3, 4 KCl, 1 MgCl2, 1.8 CaCl2), 1 MgCl2, 10 glucose and 2 Sodium pyruvate, pH 7.4, that was constantly bubbled with carbogen gas and maintained at 37° C. as described previously. Perfusion was maintained at a constant flow of ˜2.2 ml/min. Hearts were stabilized for 30 min before proceeding to the ischemic phase. Hearts that underwent P7C3 (3 μM) treatment during the Langendorff procedure were allowed to stabilize for 10 mins then a 20 min perfusion with P7C3 (3 μM) (within Krebs-Hanseleit buffer) as pre-ischemic dosing. Cardiac ischemia was induced by the pause in Krebs-Hanseleit buffer perfusion for 45 min. Reperfusion was induced with the induction of Krebs-Hanseleit buffer at a constant flow of ˜2.2 ml/min for 2 hours. […] Image J software was utilized to quantify the ischemic areas for several sections per heart, which were then averaged and divided by the total area of the heart section and multiplied by a factor of ×100(%) to determine the overall damage percentage per heart. […]

[2] = system: db/db mice; test: Skeletal muscle histology, TEM, SDH staining and mtDNA copy number in db/db mice; format: in vivo
Description: Haematoxylin and eosin staining. The tibialis anterior (TA) muscle was dissected from the mice, and embedded in optimal cutting temperature (OCT), frozen in isopentane chilled in liquid nitrogen and stored at […]. […] Images were obtained at ×10 and ×20 magnifications with the Olympus IX73 inverted microscope and were quantified using CellSens Standard software (Olympus Soft Imaging Solution, USA).
Transmission electron microscopy. The EDL muscles were fixed with 2.5% glutaraldehyde in 0.1 M sodium phosphate buffer for 2 h at RT, and overnight at 4° C., followed by washing in buffer and fixation with 1% osmium tetroxide in buffer for 2 h at 4° C. After rinsing in buffer, the samples were then dehydrated in ethanol and acetone at RT and infiltrated in acetone:pure resin (Embed812) mix in vacuum with desiccant for 1 h and in pure resin for 4 h and embedded in the embedding mix. Polymerization of the embedding mix was carried out overnight at 70° C. in the embedding moulds. Semithin (1 μm) and ultrathin (70 nm) sections were cut using a Reichert Ultracut microtome machine. The sections were then stained with 2% uranyl acetate and contrasted with lead citrate as per standard protocol. Images were taken at ×15,000, ×30,000, and ×50,000 magnifications with a JOEL1400 transmission electron microscope for the analysis of myofibre diameter and the mitochondrial area.
Mitochondrial DNA (mtDNA) copy number. Total DNA was extracted from gastrocnemius (GAS) muscle using DNeasy Blood and Tissue kit (Qiagen, Md., USA) according to the manufacturer's protocol. The quantitative real-time PCR (qPCR) analysis of the mtDNA/nDNA was performed using iTaq Universal SYBR green supermix (Bio-Rad Laboratories, CA, USA). The mouse 16S was used as the mitochondrial gene and HK2 was used as the nuclear gene to obtain the mitochondrial copy number.
Succinate dehydrogenase staining. The 10 μm thick transverse cryosections of TA muscles were cut at the mid-belly region using Leica CM 1860 AgProtect cryostat machine. Briefly, the tissue sections were air-dried for 45 minutes, and incubated in 50 mM sodium succinate dibasic hexahydrate and 1.25 mM nitroblue tetrazolium in 0.1 M phosphate buffer (Sigma-Aldrich, MO, USA) for 30 min. The reaction was stopped washing in deionized water, and the sections were dehydrated in a series of graded ethanol and cleared using xylene. The sections were then mounted with DPX mountant, and the images were captured at ×20 magnification of the Olympus IX73 inverted microscope using CellSens Standard software (Olympus Soft Imaging Solution, USA) and the succinate dehydrogenase (SDH) positive myofibres were quantified with ImageJ software.

[3] = system: db/db mice hearts; test: Western blotting of db/db heart lysates; format: in vivo; settings: vs vehicle
Description: Western blotting. For studies aimed to assess the insulin stimulated AKT phosphorylation, following four-week P7C3 treatment, mice were injected with Novolin R human insulin (1 Unit/kg body weight, i.p.), and hearts were collected after 5 minutes for Western blot analysis. Protein lysates for Western blotting were prepared from mouse hearts as described previously. Equivalent amounts of protein were loaded and resolved using 12% precast polyacrylamide gels (BioRad, CA, USA). Successful transfer of proteins was detected using Ponceau S (Sigma-Aldrich, MO, USA), and blots were probed with mouse monoclonal primary antibody for phospho AKT^ser473 (p-AKT), total AKT (t-AKT), phospho eNOS^ser1177 (p-eNOS), total eNOS (t-eNOS), Beclin1, and GAPDH (Cell signaling, MA, USA). HRP conjugated Rabbit anti-mouse antibody (Millipore) was used as a secondary antibody. Target protein band densities were quantified using Image J software.

[4] = target: T1, Nampt (Mus musculus, UniProt Q99KQ4); test: Cardiac Nampt enzymatic activity in db/db mice; format: in vivo; settings: 10 mg/kg body weight/day, i.p., four-week, vs vehicle
T1 construct: from tissue; host or cells: whole heart homogenate of db/db mice
T1 sequence (Q99KQ4 whole entry): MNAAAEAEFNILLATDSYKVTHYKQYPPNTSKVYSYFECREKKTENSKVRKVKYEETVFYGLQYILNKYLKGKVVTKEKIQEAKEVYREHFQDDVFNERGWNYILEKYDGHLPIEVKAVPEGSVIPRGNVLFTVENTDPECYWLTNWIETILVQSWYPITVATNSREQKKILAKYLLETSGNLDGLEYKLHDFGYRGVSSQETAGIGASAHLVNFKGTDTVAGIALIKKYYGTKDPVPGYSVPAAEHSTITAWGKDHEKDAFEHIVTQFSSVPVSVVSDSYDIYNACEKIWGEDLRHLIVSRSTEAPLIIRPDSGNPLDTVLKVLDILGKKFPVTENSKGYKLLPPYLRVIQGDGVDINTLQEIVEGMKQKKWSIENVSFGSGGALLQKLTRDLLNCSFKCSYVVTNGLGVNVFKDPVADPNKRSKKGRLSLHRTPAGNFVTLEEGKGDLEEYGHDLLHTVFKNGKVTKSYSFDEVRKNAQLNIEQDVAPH
From the text: Nampt enzymatic activity.

[5] = system: db/db mice; test: LC-MS/MS lipidomics of gastrocnemius muscle in db/db mice; format: in vivo
Description: Lipidomics. The lipidomic profiling of GAS muscle was performed using a liquid chromatography-tandem mass spectrometry (LC-MS/MS) method as described previously. Briefly, the GAS muscle samples were collected, and flash frozen in liquid nitrogen. Around 50-100 mg of the muscle tissue was homogenized using a bead-beating method, then the obtained supernatant was further cleaned and concentrated by solid phase extraction. The extracted LMs samples were dried under vacuum and stored at […] for future LC-MS/MS analysis. The dried extracts were reconstituted with 50 μL of methanol, and 10 μL was injected into LC-MS/MS to observe lipid profiles in GAS muscles. The LC-MS/MS system components were from Shimadzu Scientific Instruments Inc. (Columbia, Md., USA). All analyses and data processing were completed with the use of Shimadzu Lab Solutions V5.91 software (Shimadzu Scientific, Tokyo, Japan).

[6] = tibialis anterior, H&E, vs db-Veh

SMILES: OC(CNc1ccccc1)Cn1c2ccc(Br)cc2c2cc(Br)ccc21 (stereo not shown) [P7C3, 3,6-Dibromo-a-[(phenylamino)methyl]-9H-carbazole-9-ethanol]
- cardiac effluent Troponin I levels ([1]; 30 and 120 minutes post-ischemia): significant decrease
- infarct size ([1]; P7C3 3 μM prior to and following (2 hour reperfusion) ischemia): 18%
- SDH positive myofibres ([2]; TA muscle, 4 weeks): significantly improved
- mitochondria morphology and function ([2]; TEM, db/db): improved
- myofibre diameter of the extensor digitorum longus muscle ([2]; TEM, vs db-Veh): increase
- 16S expression (mtDNA) ([2]; gastrocnemius, vs db-Veh): significantly decreased
- medium and larger sized myofibres cross-sectional areas [2, 6]: increase
- small myofibres cross-sectional areas (0-1500 μm^2) [2, 6]: significant decrease
- p-AKT signaling in cardiac tissue ([3]; 10 mg/kg/day i.p.): significantly increased
- Beclin 1 protein expression [3]: significant increase
- p-eNOS levels in cardiac tissue [3]: significantly increased
- cardiac Nampt activity [4]: significantly increased
- anti-inflammatory LMs (DHA, HDoHE derivatives, EPA, 5-HEPE) [5]: lowered
- pro-inflammatory LMs (arachidonic acid, 11-HETE, 15-HETE) [5]: significantly attenuated
- 2-arachidonoyl glycerol (2-AG) levels ([5]; vs db-Veh): significantly decreased
- anandamide (AEA) levels ([5]; vs db-Veh and WT): significantly higher
